# Several values for one entry are separate records, joined by “and”; a condition that tells them apart may be missing. Identical values can stand only once. Inconclusive results and toxic doses are left out.
# Test system: P388 leukemia ip, CD2F1 mice, survival T/C
# Assay: NCI In Vivo Anticancer Drug Screen. Data for tumor model P388 Leukemia (intraperitoneal) in CD2F1 (CDF1) mice
# Conditions: endpoint: median survival time, higher = longer survival
# Procedure, shortened: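 Mice carrying the transplanted tumor received test compound or vehicle. Survival was recorded in each group, and the value is the treated-group measurement divided by that of the vehicle-treated control group.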
# [1] = dose: 60.0 mg/kg/injection, schedule: Q01DX005 (ip), vehicle: saline with Tween-80
# [2] = dose: 120.0 mg/kg/injection, schedule: Q01DX005 (ip), vehicle: saline with Tween-80
# [3] = dose: 240.0 mg/kg/injection, schedule: Q01DX005 (ip), vehicle: saline with Tween-80
# [4] = dose: 50.0 mg/kg/injection, schedule: Q01DX009 (ip), vehicle: saline with Tween-80
# [5] = dose: 100.0 mg/kg/injection, schedule: Q01DX009 (ip), vehicle: saline with Tween-80
# [6] = dose: 25.0 mg/kg/injection, schedule: Q01DX009 (ip), vehicle: saline with Tween-80
# [7] = dose: 50.0 mg/kg/injection, schedule: Q01DX009 (ip), vehicle: Klucel (hydroxypropylcellulose) (HPC)
# [8] = dose: 100.0 mg/kg/injection, schedule: Q01DX009 (ip), vehicle: Klucel (hydroxypropylcellulose) (HPC)
# [9] = dose: 60.0 mg/kg/injection, schedule: Q01DX005 (ip), vehicle: Klucel (hydroxypropylcellulose) (HPC)
# [10] = dose: 120.0 mg/kg/injection, schedule: Q01DX005 (ip), vehicle: Klucel (hydroxypropylcellulose) (HPC)
# [11] = dose: 200.0 mg/kg/injection, schedule: Q01DX009 (ip), vehicle: saline with Tween-80
# [12] = dose: 50.0 mg/kg/injection, schedule: Q01DX005 (ip), vehicle: saline with Tween-80
# [13] = dose: 100.0 mg/kg/injection, schedule: Q01DX005 (ip), vehicle: saline with Tween-80
compound,measurement,setting,value
COc1cccc2c1C(=O)c1c(O)c3c(c(O)c1C2=O)[C@@H](N=[N+]=[N-])[C@@](O)(C(C)=O)C[C@@H]3OC1CC(N)C(O)C(C)O1 (some centres undefined),T/C,"dose: 3.13 mg/kg/injection, schedule: Q04DX003 (ip), vehicle: water",102 % of control
same,T/C,"dose: 6.25 mg/kg/injection, schedule: Q04DX003 (ip), vehicle: water",111 % of control
same,T/C,"dose: 12.5 mg/kg/injection, schedule: Q04DX003 (ip), vehicle: water",117 % of control and 120 % of control
same,T/C,"dose: 25.0 mg/kg/injection, schedule: Q04DX003 (ip), vehicle: water",122 % of control
same,T/C,"dose: 50.0 mg/kg/injection, schedule: Q04DX003 (ip), vehicle: water",105 % of control and 120 % of control
same,T/C,"dose: 100.0 mg/kg/injection, schedule: Q04DX003 (ip), vehicle: water",100 % of control
CCn1c(=O)cc2n(C)c3ccccc3n2c1=O,T/C,[1],98 % of control
same,T/C,[2],94 % of control
same,T/C,[3],92 % of control
CCOC(C)(c1ccc(Cl)cc1)C1CCNCC1 (centres undefined),T/C,[4],101 % of control
same,T/C,[5],119 % of control
CCc1c(-c2ccccc2)[nH]c2ccccc12,T/C,[6],105 % of control
same,T/C,"dose: 50.0 mg/kg/injection, schedule: Q01DX009 (ip), vehicle: saline + alcohol",116 % of control
same,T/C,[4],100 % of control
same,T/C,"dose: 100.0 mg/kg/injection, schedule: Q01DX009 (ip), vehicle: saline + alcohol",112 % of control
same,T/C,[5],115 % of control
same,T/C,"dose: 200.0 mg/kg/injection, schedule: Q01DX009 (ip), vehicle: saline + alcohol",103 % of control
same,T/C,"dose: 400.0 mg/kg/injection, schedule: Q01DX009 (ip), vehicle: saline + alcohol",108 % of control
C=C(OP(=O)(OC)OC)Sc1ccccc1C,T/C,"dose: 0.04 mg/kg/injection, schedule: Q01DX005 (ip), vehicle: Klucel (hydroxypropylcellulose) (HPC)",105 % of control
same,T/C,"dose: 0.09 mg/kg/injection, schedule: Q01DX005 (ip), vehicle: Klucel (hydroxypropylcellulose) (HPC)",100 % of control
same,T/C,"dose: 0.18 mg/kg/injection, schedule: Q01DX005 (ip), vehicle: Klucel (hydroxypropylcellulose) (HPC)",106 % of control
same,T/C,"dose: 0.37 mg/kg/injection, schedule: Q01DX005 (ip), vehicle: Klucel (hydroxypropylcellulose) (HPC)",92 % of control
same,T/C,"dose: 0.75 mg/kg/injection, schedule: Q01DX005 (ip), vehicle: Klucel (hydroxypropylcellulose) (HPC)",100 % of control
same,T/C,"dose: 1.5 mg/kg/injection, schedule: Q01DX005 (ip), vehicle: Klucel (hydroxypropylcellulose) (HPC)",96 % of control
same,T/C,"dose: 12.5 mg/kg/injection, schedule: Q01DX009 (ip), vehicle: Klucel (hydroxypropylcellulose) (HPC)",100 % of control and 97 % of control
same,T/C,"dose: 25.0 mg/kg/injection, schedule: Q01DX009 (ip), vehicle: Klucel (hydroxypropylcellulose) (HPC)",102 % of control and 116 % of control
same,T/C,[7],111 % of control and 121 % of control
same,T/C,[8],105 % of control and 92 % of control
CCn1c(-c2c(Cl)cc(O)cc2Cl)cc2c(Cl)cc(O)cc21,T/C,[9],87 % of control
same,T/C,[10],92 % of control
N=c1ncn(C2OC(CO)C(O)C2O)c2nc(Br)[nH]c12 (centres undefined),T/C,"dose: 25.0 mg/kg/injection, schedule: Q04DX003 (ip), vehicle: saline with Tween-80",100 % of control
same,T/C,"dose: 50.0 mg/kg/injection, schedule: Q04DX003 (ip), vehicle: saline with Tween-80",105 % of control
same,T/C,"dose: 100.0 mg/kg/injection, schedule: Q04DX003 (ip), vehicle: saline with Tween-80",100 % of control
same,T/C,"dose: 200.0 mg/kg/injection, schedule: Q04DX003 (ip), vehicle: saline with Tween-80",98 % of control
N#CN(Cc1ccccc1)C(c1ccccc1)(c1ccccc1)c1ccccc1.[Br][Sn]([c]1ccccc1)([c]1ccccc1)[c]1ccccc1,T/C,"dose: 1.5 mg/kg/injection, schedule: Q01DX005 (ip), vehicle: saline with Tween-80",98 % of control
same,T/C,"dose: 3.0 mg/kg/injection, schedule: Q01DX005 (ip), vehicle: saline with Tween-80",100 % of control
same,T/C,"dose: 6.0 mg/kg/injection, schedule: Q01DX005 (ip), vehicle: saline with Tween-80",101 % of control
same,T/C,"dose: 6.25 mg/kg/injection, schedule: Q01DX005 (ip), vehicle: saline with Tween-80",94 % of control
CC(=N\N)/C(C)=N/N,T/C,[6],100 % of control
same,T/C,[4],121 % of control
Cc1cccn2cc(CC(=O)O)nc12,T/C,"dose: 100.0 mg/kg/injection, schedule: Q01DX001 (ip), vehicle: saline",105 % of control
same,T/C,"dose: 200.0 mg/kg/injection, schedule: Q01DX001 (ip), vehicle: saline",104 % of control
same,T/C,"dose: 400.0 mg/kg/injection, schedule: Q01DX001 (ip), vehicle: saline",109 % of control
NC(=S)/C(N)=N/Nc1ccc(Cl)cc1,T/C,"dose: 6.25 mg/kg/injection, schedule: Q01DX009 (ip), vehicle: saline with Tween-80",104 % of control
same,T/C,"dose: 12.5 mg/kg/injection, schedule: Q01DX009 (ip), vehicle: saline with Tween-80",103 % of control
same,T/C,[6],106 % of control
same,T/C,[4],116 % of control
Cc1cc(Nc2ccc(O)cc2)nc(Nc2ccc(O)cc2)n1,T/C,[1],99 % of control
same,T/C,[2],99 % of control
same,T/C,[3],103 % of control
CN(CCO)C1=CC(=O)C(N2c3ccccc3Nc3cc(O)c(N(C)CCO)cc32)=CC1=O,T/C,"dose: 50.0 mg/kg/injection, schedule: Q01DX009 (ip), vehicle: suspension in saline",101 % of control
same,T/C,"dose: 100.0 mg/kg/injection, schedule: Q01DX009 (ip), vehicle: suspension in saline",99 % of control
same,T/C,"dose: 200.0 mg/kg/injection, schedule: Q01DX009 (ip), vehicle: suspension in saline",105 % of control
Nc1ccn(C2OC(C(OC3OC(CO)C(O)C(N)C3O)C(O)C(O)C(O)C(O)CO)C(N)C(O)C2O)c(=O)n1 (centres undefined),T/C,"dose: 0.1 mg/kg/injection, schedule: Q01DX005 (ip), vehicle: saline",100 % of control
same,T/C,"dose: 0.2 mg/kg/injection, schedule: Q01DX005 (ip), vehicle: saline",102 % of control
same,T/C,"dose: 0.4 mg/kg/injection, schedule: Q01DX005 (ip), vehicle: saline",107 % of control
same,T/C,"dose: 0.8 mg/kg/injection, schedule: Q01DX005 (ip), vehicle: saline",102 % of control
C/C(=N\NC(=O)c1cc(C)nc2ccc(Br)cc12)c1ccccc1O,T/C,[4],88 % of control
same,T/C,[5],94 % of control
same,T/C,[11],110 % of control
COc1cc(C2c3cc4c(cc3[C@@H](OC3OC5CO[C@@H](C)OC5C(O)C3O)[C@H]3COC(=O)C23)OCO4)cc(OC)c1OC (some centres undefined),T/C,"dose: 16.0 mg/kg/injection, schedule: Q01DX005 (ip), vehicle: saline",163 % of control
same,T/C,"dose: 32.0 mg/kg/injection, schedule: Q01DX005 (ip), vehicle: saline",166 % of control
same,T/C,"dose: 64.0 mg/kg/injection, schedule: Q01DX005 (ip), vehicle: saline",153 % of control
COc1cc(O)c(O)cc1C(C)(C)C,T/C,"dose: 22.5 mg/kg/injection, schedule: Q01DX005 (ip), vehicle: saline with Tween-80",106 % of control
same,T/C,"dose: 45.0 mg/kg/injection, schedule: Q01DX005 (ip), vehicle: saline with Tween-80",110 % of control
same,T/C,"dose: 90.0 mg/kg/injection, schedule: Q01DX005 (ip), vehicle: saline with Tween-80",97 % of control
O=C(Nc1ccc(Cl)c(Cl)c1)NN1CCCCCC1,T/C,[12],103 % of control
same,T/C,[13],103 % of control
same,T/C,"dose: 200.0 mg/kg/injection, schedule: Q01DX005 (ip), vehicle: saline with Tween-80",101 % of control
Cn1c(N)c(C(=O)C(F)(F)F)c(=O)n(C)c1=O,T/C,[4],99 % of control
same,T/C,[5],95 % of control
same,T/C,[11],95 % of control
CNC(=O)OCCC(OC(=O)NC)C1CCC2C3CC=C4CC(OC(=O)NC)CCC4(C)C3CCC12C (centres undefined),T/C,[9],99 % of control
same,T/C,[10],93 % of control
same,T/C,"dose: 240.0 mg/kg/injection, schedule: Q01DX005 (ip), vehicle: Klucel (hydroxypropylcellulose) (HPC)",100 % of control
C/C=C/C1CC2CC(CC(O)CC)CN2O1 (centres undefined),T/C,"dose: 25.0 mg/kg/injection, schedule: Q01DX005 (ip), vehicle: saline with Tween-80",108 % of control
same,T/C,[12],100 % of control
same,T/C,[13],110 % of control
Cn1c(CC(O)c2nc3ccccc3n2C)nc2ccccc21 (centres undefined),T/C,[7],98 % of control
same,T/C,"dose: 50.0 mg/kg/injection, schedule: Q01DX009 (ip), vehicle: saline",114 % of control
same,T/C,[8],105 % of control
same,T/C,"dose: 100.0 mg/kg/injection, schedule: Q01DX009 (ip), vehicle: saline",112 % of control
same,T/C,"dose: 200.0 mg/kg/injection, schedule: Q01DX009 (ip), vehicle: Klucel (hydroxypropylcellulose) (HPC)",98 % of control
same,T/C,"dose: 200.0 mg/kg/injection, schedule: Q01DX009 (ip), vehicle: saline",107 % of control

# Reference: PubChem BioAssay AID330 (DTP/NCI, 2004)
